# Values quoted from earlier work in patent US9636287B2, “Primecoat compositions for proteinaceous substrates and methods of priming proteinaceous substrates therewith” (Mad River Science, priority 2012, dated 2017).
# Test system: EpiDerm Skin Model (normal, human-derived epidermal keratinocytes, NHEK)
# Conditions: MatTek Corporation general guideline groupings, example materials
Compound,ET-50 (hrs),Expected In vivo Irritancy,ET-50
"CCCCCCCCCCCCOS(=O)(=O)[O-].[Na+] [1% Sodium Dodecyl Sulfate, Sodium Dodecyl Sulfate]",0.5-4^ hrs,Moderate,
"O=[N+]([O-])O [Conc. Nitric Acid, Nitric Acid]",,"Severe, probably corrosive",<0.5 h
Triton X-100 [1% Triton X-100],,Moderate to Mild,4 to 12 h
